The conditions of data set [1]: single warfarin dose studies, healthy volunteers (n = 5 or 6); cited from earlier work.
For data set [2], the system named is CYP2C9-mediated (S)-warfarin 7-hydroxylation. Nature of the data set: Prediction of in vivo warfarin drug interaction from [I]/KI and [I]u/KI,u. Further details: species or system human. As to conditions: equation 1.

Molecules are shown by their SMILES.

As to `CC(=O)C[C@@H](c1ccccc1)c1c(O)c2ccccc2oc1=O` [(S)-warfarin], the “actual increase in the mean AUC caused by the drug interaction with AMIO” value in data set [1] was 27 to 110%. The “predicted increase in AUC” value in data set [2] (sum of [I]/KI ratios of AMIO and circulating metabolites) was 6 fold; in data set [2] (sum of [I]u/KI,u ratios of AMIO and circulating metabolites) it was 6 fold.
